The values that follow come from patent US6291432A (Japan Energy Corporation, priority 1996, dated 2001).

Values after ≈ are worked out from the molar mass of the structure shown. Where two headings read alike, the source gives them in different places.

Series [1] has as its target T1, recombinant HIV-1 protease (Human immunodeficiency virus type 1 group M subtype B, UniProt P04585).
T1 construct: measured using a recombinant HIV-1 protease
Put plainly: Evaluation of enzyme inhibition constant Ki. In kind it is biochemical. How it is done:
The synthesized peptide substrate having a sequence of H-Lys-Ala-Arg-Val-Tyr-Phe (4-NO2)-Glu-Ala-Nle-NH2 (SEQ ID NO. 1) was used in this experiment. The enzyme reaction was measured using a reversed phase HPLC by determining the C-terminal peptide fraction produced by cleavage just behind Tyr in the synthesized substrate which is obtained by reacting the following composition for 15 min. at 37° C. and stopping the reaction by the addition of 1N HCl (75 μl).
Composition of reaction mixture
Recombinant HIV-1 protease enzyme solution 10 μl
0.5 mM synthetic substrate aqueous solution 10 μl
DMSO Inhibitor solution 5 μl
0.2 M MES solution 25 μl
(1 M NaCl, 2 mM EDTA-2Na, 2 mM DTT, pH 5.5)
Column: Waters Nova-pak C18 (3.9×75 mm)
Eluent: A; water (0.1% TFA)
B; acetonitrile (0.1% TFA)
Flow rate: 2 ml/min isocratic; 10% B solution
Detection: Fluorescence 305 nm, excitation 275 nm

Series [2] concerns the target T1, recombinant HIV-1 protease. Put plainly: HIV protease inhibition activity (enzyme activity inhibition rate). Type of series: biochemical. The conditions noted are these: for inhibition at 0.05 µM: read-out: Enzyme activity inhibition rate (%) (addition concentration of 50 nM). On the procedure: The protease activity was measured using a recombinant HIV-1 protease (see Biochemistry, 250 (9)-264 (1990)) and a synthesized peptide substrate. The inhibition rate was calculated by determining a peptide fragment generated by cleavage between Tyr-Pro of the synthesized substrate after the reaction of 60 min at 37° C. using a reversed phase HPLC in the presence of the test compounds in various concentrations (see, for example, Japanese Patent Application Laid-open No. 170722/1993).
Examples of the evaluation results of the HIV protease inhibition activity of the tripeptide compound of the present invention by the above-described method is shown in Table 1. […] The concentration of the test compounds in Table 1 represents the final concentration in the reaction mixture.

The test system of the next series is CEM-SS cell. The experiment in a line: Cytotoxicity in HIV virus non-infected CEM-SS cells (XTT method). In kind it is cell-based. As to conditions: six days, highest concentration 1.0 μg/ml. How it is done: (§1) EP 0751145 A2). On a 96-well micro titre plate, the test compounds were added to the culture medium in various concentrations, then the HIV infected CEM-SS cell was added and incubated for six days at 37° C. using a CO2 incubator. The number of the living cells was then measured by a XTT method. On the other hand, in order to examine the cytotoxicity of the test compounds, the test compounds were added in various concentrations and the HIV virus non-infected cell was incubated under similar conditions. As the reference group, the HIV infected CEM-SS cell was incubated without the addition of the test compounds. Moreover, the HIV virus non-infected cell was incubated without the addition of the test compound as the control group. The anti-virus activity was evaluated in a concentration in which the cytotoxic effect caused by the HIV infected virus in the above HIV infected cell group was inhibited 50 percent (EC50, 50% effective concentration), and the cytotoxicity was evaluated in a concentration in which the cytotoxic effect by the addition of the test compound in the HIV virus non-infected cell group occurred at 50 percent (TC50, 50% cytotoxic concentration) respectively.
(Tetrazolium assays rely on reduction of a dye to a coloured formazan, in cell work by metabolically active cells.)

Series [3] has as its system HIV virus strain HIV-1 IIIB. Put plainly: Anti-HIV activity in HIV infected CEM-SS cells (XTT method). Type of series: cell-based. As to conditions: Human immunodeficiency virus 1, 144 h, HIV-1 IIIB infected CEM-SS cell, six days at 37° C. How it is done: as §1
Setting [4] is: 50 nM final concentration of test compound, 60 min at 37° C.

The term Ki denotes a measure of affinity in units of concentration, obtained from inhibition or displacement. One may read the EC50 as the concentration at which the effect is half-maximal. Read a high EC50 as a less potent agent.

In the case of `CC1(C)SCN(C(=O)[C@@H](O)[C@H](Cc2ccccc2)NC(=O)[C@H](CC(N)=O)NC(=O)OCc2ccccc2)[C@@H]1C(=O)NCc1ccccc1` [Example 1, (R)-N-benzyl-3-{(2S,3S)-3-[N-(benzyloxycarbonyl)-L-asparaginyl]amino-2-hydroxy-4-phenylbutanoyl}-5,5-dimethyl-1,3-thiazolidine-4-carboxamide], the inhibition constant Ki in series [1] came to 0.019 nM. Moreover, the inhibition at 0.05 µM in series [2] (setting [4]) stood at 96%.

`Cc1ccccc1CNC(=O)[C@H]1N(C(=O)[C@@H](O)[C@H](Cc2ccccc2)NC(=O)[C@H](CC(N)=O)NC(=O)OCc2ccccc2)CSC1(C)C` [Example 3, (R)-N-(2-methylbenzyl)-3-{(2S,3S)-3-[N-(benzyloxycarbonyl)-L-asparaginyl]amino-2-hydroxy-4-phenylbutanoyl}-5,5-dimethyl-1,3-thiazolidine-4-carboxamide]: the Ki in series [1] is 0.016 nM. Further, the inhibition at 0.05 µM in series [2] (setting [4]) turned out to be 100%.

In the case of `Cc1ccccc1CNC(=O)[C@H]1N(C(=O)[C@@H](O)[C@H](Cc2ccccc2)NC(=O)[C@H](CC(N)=O)NC(=O)c2cc(=O)c3ccccc3o2)CSC1(C)C` [Example 6, (R)-N-(2-methylbenzyl)-3-{(2S,3S)-3-[N-(2-chromonecarbonyl)-L-asparaginyl]amino-2-hydroxy-4-phenylbutanoyl}-5,5-dimethyl-1,3-thiazolidine-4-carboxamide], the inhibitory constant (Ki) in series [1] (reversible tight-binding inhibitor model, test compound 1-100 nM, 15 min at 37° C., pH 5.5, read-out: Enzyme inhibition constant Ki) came out at 0.0017 nM. In addition, the “Enzyme activity inhibition rate (%) (addition concentration of 50 nM)” value in series [2] (setting [4]) was 98.4%.

As to `Cc1ccccc1CNC(=O)[C@H]1N(C(=O)[C@@H](O)[C@H](Cc2ccccc2)NC(=O)[C@H](CC(N)=O)NC(=O)c2cc3ccccc3o2)CSC1(C)C` [Example 7, (R)-N-(2-methylbenzyl)-3-{(2S,3S)-3-[N-(2-benzofurancarbonyl)-L-asparaginyl]amino-2-hydroxy-4-phenylbutanoyl}-5,5-dimethyl-1,3-thiazolidine-4-carboxamide], the inhibition constant Ki in series [1] came out at 0.0048 nM. Moreover, in series [2] (setting [4]), the inhibition at 0.05 µM worked out at 91.2%.

Turning to `CC[C@H](NC(=O)OC)C(=O)N[C@@H](Cc1ccccc1)[C@H](O)C(=O)N1CSC(C)(C)[C@H]1C(=O)NCc1ccccc1C` [Example 28, (R)-N-(2-methylbenzyl)-3-{(2S,3S)-2-hydroxy-3-[(S)-2-(methoxycarbonyl)aminobutanoyl]amino-4-phenylbutanoyl}-5,5-dimethyl-1,3-thiazolidine-4-carboxamide], the Ki in series [1] worked out at 0.242 nM. The inhibition at 0.05 µM in series [2] (setting [4]) was 93.6%.

Regarding `COCC(=O)N[C@H](C(=O)N[C@@H](Cc1ccccc1)[C@H](O)C(=O)N1CSC(C)(C)[C@H]1C(=O)NCc1ccccc1C)C(C)C` [Example 31, (R)-N-(2-methylbenzyl)-3-{(2S,3S)-2-hydroxy-3-[(S)-2-(methoxyacetyl)amino-3-methylbutanoyl]amino-4-phenylbutanoyl}-5,5-dimethyl-1,3-thiazolidine-4-car boxamide], the inhibition at 0.05 µM in series [2] (setting [4]) was found to be 89.6%.

Turning to `CCOCC(=O)N[C@H](C(=O)N[C@@H](Cc1ccccc1)[C@H](O)C(=O)N1CSC(C)(C)[C@H]1C(=O)NCc1ccccc1C)C(C)C` [Example 32, (R)-N-(2-methylbenzyl)-3-{(2S,3S)-2-hydroxy-3-[(S)-2-(ethoxyacetyl)amino-3-methylbutanoyl]amino-4-phenylbutanoyl}-5,5-dimethyl-1,3-thiazolidine-4-carb oxamide], the inhibition at 0.05 µM in series [2] turned out to be 96.4%.

`CC(=O)N[C@H](C(=O)N[C@@H](Cc1ccccc1)[C@H](O)C(=O)N1CSC(C)(C)[C@H]1C(=O)NCc1ccccc1C)C(C)C` [Example 33, (R)-N-(2-methylbenzyl)-3-{(2S,3S)-2-hydroxy-3-[(S)-2-acetylamino-3-methylbutanoyl]amino-4-phenylbutanoyl}-5,5-dimethyl-1,3-thiazolidine-4-carboxamide]: the inhibition at 0.05 µM in series [2] (setting [4]) was 89.8%.

For `CC[C@H](NC(C)=O)C(=O)N[C@@H](Cc1ccccc1)[C@H](O)C(=O)N1CSC(C)(C)[C@H]1C(=O)NCc1ccccc1C` [Example 34, (R)-N-(2-methylbenzyl)-3-{(2S,3S)-2-hydroxy-3-[(S)-2-acetylaminobutanoyl]amino-4-phenylbutanoyl}-5,5-dimethyl-1,3-thiazolidine-4-carboxamide], the inhibition at 0.05 µM in series [2] (setting [4]) came to 88.9%.

With `Cc1ccccc1CNC(=O)[C@H]1N(C(=O)[C@@H](O)[C@H](Cc2ccccc2)NC(=O)[C@@H](NS(C)(=O)=O)C(C)C)CSC1(C)C` [Example 37, (R)-N-(2-methylbenzyl)-3-{(2S,3S)-2-hydroxy-3-[(S)-2-methanesulfonylamino-3-methylbutanoyl]amino-4-phenylbutanoyl}-5,5-dimethyl-1,3-thiazolidine-4-car boxamide], in series [2] (setting [4]), the inhibition at 0.05 µM was 70.1%.

Take `CC[C@H](NS(C)(=O)=O)C(=O)N[C@@H](Cc1ccccc1)[C@H](O)C(=O)N1CSC(C)(C)[C@H]1C(=O)NCc1ccccc1C` [Example 38, (R)-N-(2-methylbenzyl)-3-{(2S,3S)-2-hydroxy-3-[(S)-2-methanesulfonylaminobutanoyl]amino-4-phenylbutanoyl}-5,5-dimethyl-1,3-thiazolidine-4-carboxamide]: the inhibition at 0.05 µM in series [2] (setting [4]) is 76%.

Take `COC(=O)N[C@H](C(=O)N[C@@H](Cc1ccccc1)[C@H](O)C(=O)N1CSC(C)(C)[C@H]1C(=O)NCc1ccccc1C)[C@@H](C)O` [Example 39, (R)-N-(2-methylbenzyl)-3-{(2S,3S)-2-hydroxy-3-[N-(methoxycarbonyl)-L-threonyl]amino-4-phenylbutanoyl}-5,5-dimethyl-1,3-thiazolidine-4-carboxamide]: in series [2] (setting [4]), the inhibition at 0.05 µM stood at 84.6%.

Regarding `COC(=O)N[C@@H](CC(N)=O)C(=O)N[C@@H](Cc1ccccc1)[C@H](O)C(=O)N1CSC(C)(C)[C@H]1C(=O)NCc1ccccc1C` [Example 40, (R)-N-(2-methylbenzyl)-3-{(2S,3S)-2-hydroxy-3-[N-(methoxycarbonyl)-L-asparaginyl]amino-4-phenylbutanoyl}-5,5-dimethyl-1,3-thiazolidine-4-carboxamide], the inhibition at 0.05 µM in series [2] (setting [4]) was found to be 94.3%.

With `CC(C)c1nc(CN(C)C(=O)N[C@H](C(=O)N[C@@H](Cc2ccccc2)C[C@H](O)[C@H](Cc2ccccc2)NC(=O)OCc2cncs2)C(C)C)cs1` [Ritonavir, reference compound], the “Cytotoxicity TC50” value in the series with CEM-SS cell is > 1.0 µg/mL. Moreover, the EC50 in series [3] came to 0.033 µg/mL (≈ 0.0458 µM).

On to `CC(C)(C)NC(=O)[C@H]1N(C(=O)[C@@H](O)[C@H](Cc2ccccc2)NC(=O)[C@H](CC(N)=O)NC(=O)OCc2ccccc2)CSC1(C)C` [reference compound], for which, in series [1], the Ki is 0.212 nM.

With “(R)-N-(2-methylbenzyl)-3-{(2S,3S)-3-[N-(3-benzylphenoxyacetyl)-L-valyl]amin o-2-hydroxy-4-phenylbutanoyl}-5,5-dimethyl-1,3-thiazolidine-4-carboxamide [Example 17]”, the “Enzyme activity inhibition rate (%) (addition concentration of 50 nM)” value in series [2] (setting [4]) is listed as 97.1%.
